US20060110333A1 (priority 2002, published 2006)

Assay: Plasma buprenorphine concentration after single administration (LC-MS/MS)
Details: 0.1 mg/kg in terms of buprenorphine, cynomolgus monkey

In the case of CO[C@@]12CC[C@@]3(C[C@@H]1[C@](C)(O)C(C)(C)C)[C@H]1Cc4ccc(O)c5c4[C@@]3(CCN1CC1CC1)[C@H]2O5.Cl [Comparative Example 2, buprenorphine hydrochloride], the Plasma buprenorphine concentration (0 min, mean ± SD, intravenous) was 0 ng/mL, the Plasma buprenorphine concentration (10 min, Animal 1, intravenous) was 41.40 ng/mL and the Plasma buprenorphine concentration (10 min, Animal 2, intravenous) was 32.16 ng/mL. It also gave a Plasma buprenorphine concentration (10 min, Animal 3, intravenous) of 41.33 ng/mL, a Plasma buprenorphine concentration (10 min, mean ± SD, intravenous) of 38.30 ± 5.31 ng/mL and a Plasma buprenorphine concentration (30 min, Animal 1, intravenous) of 32.83 ng/mL. For the same compound, the Plasma buprenorphine concentration (30 min, Animal 2, intravenous) was 18.02 ng/mL, the Plasma buprenorphine concentration (30 min, Animal 3, intravenous) was 33.53 ng/mL and the Plasma buprenorphine concentration (30 min, mean ± SD, intravenous) was 28.12 ± 8.76 ng/mL. For the same compound, the Plasma buprenorphine concentration (60 min, Animal 1, intravenous) was 16.85 ng/mL, the Plasma buprenorphine concentration (60 min, Animal 2, intravenous) was 16.45 ng/mL and the Plasma buprenorphine concentration (60 min, Animal 3, intravenous) was 26.51 ng/mL. The Plasma buprenorphine concentration (60 min, mean ± SD, intravenous) was 19.94 ± 5.70 ng/mL, the Plasma buprenorphine concentration (120 min, Animal 1, intravenous) was 8.27 ng/mL and the Plasma buprenorphine concentration (120 min, Animal 2, intravenous) was 9.34 ng/mL. For the same compound, the Plasma buprenorphine concentration (120 min, Animal 3, intravenous) was 16.13 ng/mL, the Plasma buprenorphine concentration (120 min, mean ± SD, intravenous) was 11.25 ± 4.26 ng/mL and the Plasma buprenorphine concentration (240 min, Animal 1, intravenous) was 3.78 ng/mL. It also gave a Plasma buprenorphine concentration (240 min, Animal 2, intravenous) of 4.55 ng/mL, a Plasma buprenorphine concentration (240 min, Animal 3, intravenous) of 7.05 ng/mL and a Plasma buprenorphine concentration (240 min, mean ± SD, intravenous) of 5.13 ± 1.71 ng/mL. For the same compound, the Plasma buprenorphine concentration (480 min, Animal 1, intravenous) was 1.46 ng/mL, the Plasma buprenorphine concentration (480 min, Animal 2, intravenous) was 0.97 ng/mL and the Plasma buprenorphine concentration (480 min, Animal 3, intravenous) was 2.00 ng/mL. For the same compound, the Plasma buprenorphine concentration (480 min, mean ± SD, intravenous) was 1.48 ± 0.52 ng/mL.
